These results are taken from US10689367B2, “Triazole pyridyl compounds as agonists of the APJ receptor” (AMGEN INC., priority 2016, dated 2020).

In general, EC50 refers to the concentration that produces a half-maximal response.

In this assay the target is human APJ receptor (Homo sapiens (Human), UniProt P35414). As to the kind of experiment: [35S]GTPγS binding assay on membranes from CHO cells stably expressing human APJ receptor. The assay is classed as biochemical. To be noted: membranes of CHO cells stably expressing human APJ receptor, read-out: Activity hAPJ SPA EC50 IP. Put shortly: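 [35S]GTPγS binding measured on membranes from CHO cells stably expressing FLAG-tagged human APJ, with GDP, MgCl2 and NaCl levels optimized beforehand. Incubation 90 min at RT, imager read-out; EC50 from non-linear regression, averaged over several independent experiments.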
Chain of human APJ receptor (P35414 whole entry): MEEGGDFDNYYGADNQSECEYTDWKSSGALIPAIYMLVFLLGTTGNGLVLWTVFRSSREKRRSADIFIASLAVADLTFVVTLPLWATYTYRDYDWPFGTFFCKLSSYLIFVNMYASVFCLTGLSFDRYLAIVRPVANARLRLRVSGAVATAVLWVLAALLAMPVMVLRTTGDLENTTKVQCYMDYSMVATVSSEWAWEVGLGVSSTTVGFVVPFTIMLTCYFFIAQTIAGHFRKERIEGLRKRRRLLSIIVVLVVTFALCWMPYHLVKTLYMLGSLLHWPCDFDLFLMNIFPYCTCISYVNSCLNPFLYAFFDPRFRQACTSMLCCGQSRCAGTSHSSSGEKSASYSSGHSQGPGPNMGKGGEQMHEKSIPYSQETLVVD
(In general: GTPγS is a poorly hydrolysed GTP analogue; its binding reports G protein activation.)
As to `COc1cccc(-c2nnc(NS(=O)(=O)[C@@H](C)[C@H](OC)c3ncc(Cl)cn3)n2C2(C3CC3)CC2)n1` [Example 107.0], the EC50 was 0.42 nM.

As to `CO[C@H](c1ncc(Cl)cn1)[C@H](C)S(=O)(=O)Nc1nnc(-c2ccccn2)n1C1(C2CC2)CC1` [Example 108.0], the 50% effective concentration (EC50) worked out at 5.9 nM.

With `COc1cccc(-c2nnc(NS(=O)(=O)[C@@H](C)[C@H](OC)c3cnc(C)cn3)n2C2(C3CC3)CC2)n1` [Example 109.0], the 50% effective concentration (EC50) was 9.6 nM.

Take `CO[C@H](c1cnc(C)cn1)[C@H](C)S(=O)(=O)Nc1nnc(-c2ccccn2)n1C1(C2CC2)CC1` [Example 110.0]: the EC50 was determined as 110 nM.

With `CCC(CC)n1c(NS(=O)(=O)[C@@H](C)[C@H](OC)c2ncc(Cl)cn2)nnc1-c1cccnc1` [Example 111.0], the EC50 came to 27 nM.

For `CO[C@H](c1ncc(Cl)cn1)[C@H](C)S(=O)(=O)Nc1nnc(-c2cccnc2)n1C(C1CC1)C1CC1` [Example 112.0], the EC50 is 3.3 nM.

Take `COCC(COC)n1c(NS(=O)(=O)[C@@H](C)[C@@H](OC(C)C)c2ncc(Cl)cn2)nnc1-c1ccccn1` [Example 113.0]: the EC50 turned out to be 1.8 nM.

Take `COc1cccc(-c2nnc(NS(=O)(=O)[C@@H](C)[C@H](C)c3ncc(C)cn3)n2C2CC2)n1` [Example 114.0]: the EC50 was 54 nM.

Take `COc1cnc([C@@H](C)[C@H](C)S(=O)(=O)Nc2nnc(-c3cccc(OC)n3)n2C2CC2)cn1` [Example 118.0]: the 50% effective concentration (EC50) came out at 31 nM.

Take `COc1cnc([C@@H](C)[C@H](C)S(=O)(=O)Nc2nnc(-c3cccc(OC)n3)n2C2CC2)nc1` [Example 119.0]: the EC50 turned out to be 28 nM.

As to `COc1cccc(-c2nnc(NS(=O)(=O)[C@@H](C)[C@H](OC)c3ncc(C)cn3)n2C2CC2)n1` [Example 120.0], the concentration giving a half-maximal response (EC50) worked out at 24 nM.

In the case of `COc1cnc([C@@H](OC)[C@H](C)S(=O)(=O)Nc2nnc(-c3cccc(OC)n3)n2C2CC2)cn1` [Example 121.0], the EC50 was determined as 21 nM.

Turning to `COc1cccc(-c2nnc(NS(=O)(=O)[C@@H](C)[C@H](OC)c3cnc(C)cn3)n2C2CC2)n1` [Example 122.0], the concentration for a half-maximal effect (EC50) amounted to 56 nM.

On to `COc1cccc(-c2nnc(NS(=O)(=O)[C@@H](C)[C@@H](OC(C)C)c3cnc(C)cn3)n2C2CC2)n1` [Example 123.0], for which the concentration for a half-maximal effect (EC50) came out at 5.6 nM.

Take `COC[C@@H](C)n1c(NS(=O)(=O)[C@@H](C)[C@H](OC)c2ncc(Cl)cn2)nnc1-c1ccccn1` [Example 124.0]: the EC50 came to 24 nM.

On to `COC[C@@H](C)n1c(NS(=O)(=O)[C@@H](C)[C@H](OC)c2ncc(Cl)cn2)nnc1-c1cccnc1` [Example 125.0], for which the EC50 is 90 nM.

`COC[C@@H](C)n1c(NS(=O)(=O)[C@@H](C)[C@H](OC)c2ncc(Cl)cn2)nnc1-c1cncc(C)c1` [Example 126.0]: the EC50 was found to be 38 nM.

For the compound `CC(C)O[C@@H](c1ncc(Cl)cn1)[C@H](C)S(=O)(=O)Nc1nnc(-c2ccccn2)n1C1CC1` [Example 127.0], the concentration giving a half-maximal response (EC50) stood at 48 nM.

For the compound `CC(C)O[C@@H](c1ncc(Cl)cn1)[C@H](C)S(=O)(=O)Nc1nnc(-c2cccnc2)n1C1CC1` [Example 128.0], the 50% effective concentration (EC50) turned out to be 55 nM.

With `Cc1cncc(-c2nnc(NS(=O)(=O)[C@@H](C)[C@@H](OC(C)C)c3ncc(Cl)cn3)n2C2CC2)c1` [Example 129.0], the concentration for a half-maximal effect (EC50) stood at 66 nM.

Take `CO[C@H](c1ncc(Cl)cn1)[C@H](C)S(=O)(=O)Nc1nnc(-c2ccccn2)n1C` [Example 130.0]: the EC50 worked out at 350 nM.

Regarding `CCn1c(NS(=O)(=O)[C@@H](C)[C@H](OC)c2ncc(Cl)cn2)nnc1-c1ccccn1` [Example 131.0], the EC50 was 25 nM.

On to `COCCn1c(NS(=O)(=O)[C@@H](C)[C@H](OC)c2ncc(Cl)cn2)nnc1-c1ccccn1` [Example 132.0], for which the EC50 came to 150 nM.

In the case of `CO[C@H](c1ncc(Cl)cn1)[C@H](C)S(=O)(=O)Nc1nnc(-c2cccnc2)n1C(C)C` [Example 134.0, (1R,2S)-1-(5-chloro-2-pyrimidinyl)-1-methoxy-N-(4-(2-propanyl)-5-(3-pyridinyl)-4H-1,2,4-triazol-3-yl)-2-propanesulfonamide], the EC50 amounted to 170 nM.

In the case of `CO[C@H](c1ncc(Cl)cn1)[C@H](C)S(=O)(=O)Nc1nnc(-c2ccncc2)n1C(C)C` [Example 135.0, (1R,2S)-1-(5-chloro-2-pyrimidinyl)-1-methoxy-N-(4-(2-propanyl)-5-(4-pyridinyl)-4H-1,2,4-triazol-3-yl)-2-propanesulfonamide], the EC50 stood at 1900 nM.

In the case of `CO[C@H](c1ncc(Cl)cn1)[C@H](C)S(=O)(=O)Nc1nnc(-c2ccccn2)n1C(C)C` [Example 136.0, (1R,2S)-1-(5-chloro-2-pyrimidinyl)-1-methoxy-N-(4-(2-propanyl)-5-(2-pyridinyl)-4H-1,2,4-triazol-3-yl)-2-propanesulfonamide], the EC50 was 57 nM.

On to `COc1cccc(-c2nnc(NS(=O)(=O)[C@@H](C)[C@H](OC)c3ncc(Cl)cn3)n2CC2CCO2)n1` (stereo partly drawn) [Example 137.0, (1R,2S)-1-(5-chloropyrimidin-2-yl)-1-methoxy-N-(5-(6-methoxypyridin-2-yl)-4-(oxetan-2-ylmethyl)-4H-1,2,4-triazol-3-yl)propane-2-sulfonamide], for which the EC50 was found to be 22 nM.

As for `[2H]C1([2H])C(n2c(NS(=O)(=O)[C@@H](C)[C@H](OC)c3ncc(Cl)cn3)nnc2-c2cccc(OC)n2)C1([2H])[2H]` [Example 148.0, (1R,2S)-1-(5-Chloropyrimidin-2-yl)-N-(4-(cyclopropyl-2,2,3,3-d4)-5-(6-methoxypyridin-2-yl)-4H-1,2,4-triazol-3-yl)-1-methoxypropane-2-sulfonamide], the EC50 worked out at 6.8 nM.

Take `CO[C@H](c1ncc(Cl)cn1)[C@H](C)S(=O)(=O)Nc1nnc(-c2cncc(C)c2)n1C1CC1` [Example 149.0, (1R,2S)-1-(5-Chloropyrimidin-2-yl)-N-(4-cyclopropyl-5-(5-methylpyridin-3-yl)-4H-1,2,4-triazol-3-yl)-1-methoxypropane-2-sulfonamide]: the 50% effective concentration (EC50) came out at 36 nM.

In the case of `COc1cccc(-c2nnc(NS(=O)(=O)[C@@H](C)[C@H](OC)c3ncc(Cl)cn3)n2C2C3(CC3)C23CC3)n1` [Example 163.0, (1R,2S)-1-(5-Chloropyrimidin-2-yl)-N-(4-(dispiro[2.0.24.13]heptan-7-yl)-5-(6-methoxypyridin-2-yl)-4H-1,2,4-triazol-3-yl)-1-methoxypropane-2-sulfonamide], the 50% effective concentration (EC50) was determined as 52 nM.

Regarding `[2H]C1([2H])C(n2c(NS(=O)(=O)[C@@H](C)[C@@H](OC(C)C)c3ncc(C)cn3)nnc2-c2cccc(OC)n2)C1([2H])[2H]` [Example 164.0, (1S,2S)—N-(4-(Cyclopropyl-2,2,3,3-d4)-5-(6-methoxypyridin-2-yl)-4H-1,2,4-triazol-3-yl)-1-isopropoxy-1-(5-methylpyrimidin-2-yl)propane-2-sulfonamide], the half-maximal effective concentration (EC50) was 11 nM.

Take `COc1cccc(-c2nnc(NS(=O)(=O)[C@@H](C)[C@H](OC)c3ncc(Cl)cn3)n2[C@@H]2C[C@@H]2F)n1` [Example 169.0, (1R,2S)-1-(5-Chloropyrimidin-2-yl)-N-(4-((1R,2S)-2-fluorocyclopropyl)-5-(6-methoxypyridin-2-yl)-4H-1,2,4-triazol-3-yl)-1-methoxypropane-2-sulfonamide]: the EC50 was determined as 20 nM.

Regarding `COc1ccc(Cn2c(NS(=O)(=O)[C@@H](C)[C@H](OC)c3ncc(Cl)cn3)nnc2-c2cccc(OC)n2)cc1` [Example 170.0, (1R,2S)-1-(5-chloropyrimidin-2-yl)-1-methoxy-N-(4-(4-methoxybenzyl)-5-(6-methoxypyridin-2-yl)-4H-1,2,4-triazol-3-yl)propane-2-sulfonamide], the concentration giving a half-maximal response (EC50) was determined as 0.76 nM.

Consider `COCC(COC)n1c(NS(=O)(=O)[C@@H](C)[C@@H](OC(C)C)c2ncc(F)cn2)nnc1-c1cccc(OC)n1` [Example 171.0, (1S,2S)-N-(4-(1,3-dimethoxy-2-propanyl)-5-(6-methoxy-2-pyridinyl)-4H-1,2,4-triazol-3-yl)-1-(5-fluoro-2-pyrimidinyl)-1-(2-propanyloxy)-2-propanesulfonamide], for which the half-maximal effective concentration (EC50) stood at 0.37 nM.

Regarding `COCC(COC)n1c(NS(=O)(=O)[C@@H](C)[C@@H](OC(C)C)c2ncc(OC)cn2)nnc1-c1cccc(OC)n1` [Example 172.0, (1S,2S)-N-(4-(1,3-dimethoxy-2-propanyl)-5-(6-methoxy-2-pyridinyl)-4H-1,2,4-triazol-3-yl)-1-(5-methoxy-2-pyrimidinyl)-1-(2-propanyloxy)-2-propanesulfonamide], the EC50 stood at 1.4 nM.

As to `COC[C@H](C)n1c(NS(=O)(=O)[C@@H](C)[C@H](C)c2ncc(Cl)cn2)nnc1-c1cccc(OC)n1` [Example 174.0, (2S,3R)-3-(5-chloro-2-pyrimidinyl)-N-(4-((2S)-1-methoxy-2-propanyl)-5-(6-methoxy-2-pyridinyl)-4H-1,2,4-triazol-3-yl)-2-butanesulfonamide], the 50% effective concentration (EC50) stood at 3.3 nM.

On to `COC[C@H](C)n1c(NS(=O)(=O)[C@@H](C)[C@H](C)c2ncc(Cl)cn2)nnc1-c1ccccn1` [Example 175.0, (2S,3R)-3-(5-chloro-2-pyrimidinyl)-N-(4-((2S)-1-methoxy-2-propanyl)-5-(2-pyridinyl)-4H-1,2,4-triazol-3-yl)-2-butanesulfonamide], for which the concentration for a half-maximal effect (EC50) is 30 nM.

`COC[C@H](C)n1c(NS(=O)(=O)[C@@H](C)[C@H](C)c2ncc(Cl)cn2)nnc1-c1cncc(C)c1` [Example 176.0, (2S,3R)-3-(5-chloro-2-pyrimidinyl)-N-(4-((2S)-1-methoxy-2-propanyl)-5-(5-methyl-3-pyridinyl)-4H-1,2,4-triazol-3-yl)-2-butanesulfonamide]: the concentration giving a half-maximal response (EC50) is 110 nM.

As for `COc1cccc(-c2nnc(NS(=O)(=O)[C@@H](C)[C@@H](OC(C)C)c3ncc(Cl)cn3)n2C(C)C)n1` [Example 177.0, (1S,2S)-1-(5-chloro-2-pyrimidinyl)-N-(5-(6-methoxy-2-pyridinyl)-4-(2-propanyl)-4H-1,2,4-triazol-3-yl)-1-(2-propanyloxy)-2-propanesulfonamide], the EC50 stood at 8.9 nM.
